Source: US20170050957A1, “4-AMINO-6-(HETEROCYCLIC)PICOLINATES AND 6-AMINO-2-(HETEROCYCLIC)PYRIMIDINE-4-CARBOXYLATES AND THEIR USE AS HERBICIDES” (Dow AgroSciences LLC, priority 2013, published 2017)
Where two headings read alike, the source gives them in different places.

Assays:
[1] = system: Key Broadleaf Weed and Crop Species; experiment: Post-emergent Test II herbicidal activity (Table 15); type: in vivo; settings: post-emergence, 336 h, 14 d; for pest or weed control at 35 g/ha: 35 g ai/ha; for pest or weed control at 70 g/ha: 70 g ai/ha; for pest or weed control at 140 g/ha: 140 g ai/ha
How it was run: (§1)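 Visual injury rating (0 = none, 100% = complete kill) made 14 d after treatment, relative to untreated plants. Compounds in an acetone/DMSO/aqueous crop-oil/surfactant spray, at top rate and serial 1/2×-1/16× rates, were applied at 187 L/ha overhead to first-second true leaf plants raised 7-21 d in greenhouse.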

[2] = system: Key Grass and Sedge Weeds as well as Grass Crops; experiment: Post-emergent Test II herbicidal activity (Table 16); type: in vivo; settings: post-emergence, 336 h, 14 d; for pest or weed control at 35 g/ha: 35 g ai/ha; for pest or weed control at 70 g/ha: 70 g ai/ha; for pest or weed control at 140 g/ha: 140 g ai/ha
How it was run: as §1

[3] = Abutilon theophrasti, velvetleaf (Abutilon theophrasti), read-out: Visual Growth Reduction (%) 14 Days After Application, ABUTH
[4] = Amaranthus retroflexus, redroot pigweed (Amaranthus retroflexus), read-out: Visual Growth Reduction (%) 14 Days After Application, AMARE
[5] = Brassica napus, oilseed rape, canola (Brassica napus), read-out: Visual Growth Reduction (%) 14 Days After Application, BRSNN
[6] = Chenopodium album, lambsquarters (Chenopodium album), read-out: Visual Growth Reduction (%) 14 Days After Application, CHEAL
[7] = Euphorbia heterophylla, wild poinsettia (Euphorbia heterophylla), read-out: Visual Growth Reduction (%) 14 Days After Application, EPHHL
[8] = Helianthus annuus, sunflower (Helianthus annuus), read-out: Visual Growth Reduction (%) 14 Days After Application, HELAN
[9] = Cyperus esculentus, yellow nutsedge (Cyperus esculentus), read-out: Visual Growth Reduction (%) 14 Days After Application, CYPES
[10] = Echinochloa crus-galli, barnyardgrass (Echinochloa crus-galli), read-out: Visual Growth Reduction (%) 14 Days After Application, ECHCG
[11] = Oryza sativa, rice (Oryza sativa), read-out: Visual Growth Reduction (%) 14 Days After Application, ORYSA
[12] = Setaria faberi, giant foxtail (Setaria faberi), read-out: Visual Growth Reduction (%) 14 Days After Application, SETFA
[13] = Triticum aestivum, wheat, spring (Triticum aestivum), read-out: Visual Growth Reduction (%) 14 Days After Application, TRZAS
[14] = Zea mays, maize, corn (Zea mays), read-out: Visual Growth Reduction (%) 14 Days After Application, ZEAMX

Row | SMILES | melting point [°C] | pest or weed control at 35 g/ha [1, 3] [%] | pest or weed control at 70 g/ha [1, 3] [%] | pest or weed control at 140 g/ha [1, 3] [%] | pest or weed control at 35 g/ha [1, 4] [%] | pest or weed control at 70 g/ha [1, 4] [%] | pest or weed control at 140 g/ha [1, 4] [%] | pest or weed control at 35 g/ha [1, 5] [%] | pest or weed control at 70 g/ha [1, 5] [%] | pest or weed control at 140 g/ha [1, 5] [%] | pest or weed control at 35 g/ha [1, 6] [%] | pest or weed control at 70 g/ha [1, 6] [%] | pest or weed control at 140 g/ha [1, 6] [%] | pest or weed control at 35 g/ha [1, 7] [%] | pest or weed control at 70 g/ha [1, 7] [%] | pest or weed control at 140 g/ha [1, 7] [%] | pest or weed control at 35 g/ha [1, 8] [%] | pest or weed control at 70 g/ha [1, 8] [%] | pest or weed control at 140 g/ha [1, 8] [%] | pest or weed control at 35 g/ha [2, 9] [%] | also measured
1 | Nc1c(F)c(-c2ccc3[nH]ccc3c2)nc(C(=O)O)c1Cl [Compound 1.04] | 180 to 182 | 45 to 59 | 0 to 29 | 0 to 29 | 60 to 74 | 60 to 74 | 60 to 74 | 30 to 44 | 45 to 59 | 45 to 59 | 45 to 59 | 60 to 74 | 60 to 74 | 95 to 100 | 95 to 100 | 95 to 100 | 45 to 59 | 45 to 59 | 85 to 94 | 0 to 29 | pest or weed control at 70 g/ha [2, 9]: 0 to 29%; pest or weed control at 140 g/ha [2, 9]: 0 to 29%; pest or weed control at 35 g/ha [2, 10]: 0 to 29%; pest or weed control at 140 g/ha [2, 10]: 85 to 94%; pest or weed control at 35 g/ha [2, 11]: 0 to 29%; pest or weed control at 70 g/ha [2, 11]: 0 to 29%; pest or weed control at 140 g/ha [2, 11]: 0 to 29%; pest or weed control at 35 g/ha [2, 12]: 0 to 29%; pest or weed control at 70 g/ha [2, 12]: 0 to 29%; pest or weed control at 140 g/ha [2, 12]: 0 to 29%; pest or weed control at 35 g/ha [2, 13]: 0 to 29%; pest or weed control at 70 g/ha [2, 13]: 0 to 29%; pest or weed control at 140 g/ha [2, 13]: 0 to 29%; pest or weed control at 35 g/ha [2, 14]: 0 to 29%; pest or weed control at 70 g/ha [2, 14]: 0 to 29%; pest or weed control at 140 g/ha [2, 14]: 0 to 29%
2 | COC(=O)c1nc(-c2ccc3cc[nH]c3c2)c(Cl)c(N)c1Cl [Compound 1.05] | 174 to 179 | 45 to 59 | 95 to 100 | 85 to 94 | 60 to 74 | 75 to 84 | 95 to 100 | 30 to 44 | 45 to 59 | 60 to 74 | 85 to 94 | 95 to 100 | 95 to 100 | 30 to 44 | 30 to 44 | 45 to 59 | 95 to 100 | 95 to 100 | 95 to 100 | 0 to 29 | pest or weed control at 70 g/ha [2, 9]: 0 to 29%; pest or weed control at 140 g/ha [2, 9]: 0 to 29%; pest or weed control at 35 g/ha [2, 10]: 0 to 29%; pest or weed control at 70 g/ha [2, 10]: 0 to 29%; pest or weed control at 140 g/ha [2, 10]: 60 to 74%; pest or weed control at 35 g/ha [2, 11]: 0 to 29%; pest or weed control at 70 g/ha [2, 11]: 0 to 29%; pest or weed control at 140 g/ha [2, 11]: 0 to 29%; pest or weed control at 35 g/ha [2, 12]: 30 to 44%; pest or weed control at 70 g/ha [2, 12]: 45 to 59%; pest or weed control at 140 g/ha [2, 12]: 60 to 74%; pest or weed control at 35 g/ha [2, 13]: 0 to 29%; pest or weed control at 70 g/ha [2, 13]: 30 to 44%; pest or weed control at 140 g/ha [2, 13]: 45 to 59%; pest or weed control at 35 g/ha [2, 14]: 0 to 29%; pest or weed control at 70 g/ha [2, 14]: 30 to 44%; pest or weed control at 140 g/ha [2, 14]: 45 to 59%
